Data: PMC8352984, “Estrogen mediates sex differences in preoptic neuropeptide and pituitary hormone production in medaka” (Communications Biology, 2021)

Columns and labels:
Assay type in all cases: cell-based, medaka (Oryzias latipes)
[1] = test system: growth hormone (gh) gene expression; experiment: Ex vivo pituitary organ culture, real-time PCR of gh; details: for gh expression (in words): 10^-5 M, 24 h, 25 °C, vs vehicle
Text: (§1) Fig. 8 Pacap and Vip have pleiotropic effects on the expression of anterior pituitary hormones. The effects of Pacap and Vip on gene expression levels of follicle-stimulating hormone β subunit (fshb), luteinizing hormone β subunit (lhb), thyroid-stimulating hormone β subunit (tshb), growth hormone (gh), somatolactin (sl), prolactin (prl), and pro-opiomelanocortin (pomc) were investigated by using male and female pituitaries cultured ex vivo (n = 6 per group, except male pituitary supplemented with Vip, where n = 5). Data were expressed as means with error bars representing standard error of the mean. Statistical differences were assessed by Dunnett’s post-hoc test. *p < 0.05; **p < 0.01; ***p < 0.001.
(§2) The pituitaries from five male or female fish were pooled for each sample and cultured ex vivo in Leibovitz’s L-15 medium supplemented with 5% charcoal-stripped fetal bovine serum as described elsewhere. The medium was further supplemented with 10^−5 M medaka Pacap or Vip, or vehicle alone. After 24 h of culture at 25 °C, the pituitaries were processed for total RNA extraction and cDNA synthesis by using the RNeasy Plus Micro Kit (Qiagen) and SuperScript VILO cDNA Synthesis Kit (Thermo Fisher Scientific), respectively. Real-time PCR was performed on the LightCycler 480 System II using LightCycler 480 SYBR Green I Master (Roche Diagnostics). The cycle conditions were: 95 °C for 5 min followed by 45 cycles of 95 °C for 10 sec, 60 °C for 10 sec and 72 °C for 10 sec. Melting curve analysis was performed as described above. Data were normalized to the geometric mean of three reference genes, actb, gapdh (encoding glyceraldehyde-3-phosphate dehydrogenase; National BioResource Project (NBRP) Medaka clone ID olbrno9_f15) and rpl13 (encoding ribosomal protein L13; NBRP Medaka clone ID olovano51_b24), according to Vandesompele et al.[63]. The primers used for real-time PCR are listed in Supplementary Table 3.

[2] = test system: prolactin (prl) gene expression; experiment: Ex vivo pituitary organ culture, real-time PCR of prl; details: for prl expression (in words): 10^-5 M, 24 h, 25 °C, vs vehicle
Text: as §1, §2

[3] = test system: luteinizing hormone β subunit (lhb) gene expression; experiment: Ex vivo pituitary organ culture, real-time PCR of lhb; details: for lhb expression (in words): 10^-5 M, 24 h, 25 °C, vs vehicle;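 as to lhb expression (Fig. 8, lhb): relative expression with female control samples set to 1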
Text: as §1, §2

[4] = test system: follicle-stimulating hormone β subunit (fshb) gene expression; experiment: Ex vivo pituitary organ culture, real-time PCR of fshb;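 as to fshb expression (Fig. 8, fshb): relative expression with female control samples set to 1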
Text: as §1, §2

[5] = test system: medaka Adcyap1r1a; experiment: Receptor activation assay, cAMP-responsive luciferase in COS-7 cells
Text: (§3) The number at each node indicates bootstrap values for 1000 replicates. Scale bar represents 0.1 substitutions per site. SCTR, secretin receptor. For species names and GenBank accession numbers, see Supplementary Table 2. b Ability of Pacap and Vip to activate medaka Pacap/Vip receptors. […] Representative sections of pituitary at different levels along the anterior–posterior axis are shown. Arrowheads indicate expression signals. […] Scale bars represent 50 μm. f Identity of the pituitary cells expressing each Pacap/Vip receptor. The spatial expression pattern of each receptor was compared with that of each pituitary hormone gene in the RPD and PI. Left and middle panels show images of the expression of the indicated receptor (adcyap1r1a, adcyap1r1b, or vipr2b; green) and pituitary hormone gene (sl, prl, or pomc; magenta) in the same sections; right panels show the merged images with nuclear counterstaining (blue). […] Scale bars represent 20 μm. Quantitative data were expressed as means with error bars representing standard error of the mean. […] PI pars intermedia, PPD proximal pars distalis, RPD rostral pars distalis.
(§4) Receptor activation assay was performed essentially as described previously. Medaka Pacap (38 amino acids) and Vip (28 amino acids) polypeptides with amidated C termini were synthesized by Scrum (Tokyo, Japan). cDNA fragments encoding the full-length Adcyap1r1a (GenBank accession number XM_023965124), Adcyap1r1b (XM_011474272), Vipr1a (XM_023950180), Vipr1b (XM_004079106), Vipr2a (XM_023950048) and Vipr2b (XM_023965399) were PCR-amplified and subcloned into the expression vector pcDNA3.1/V5-His-TOPO (Thermo Fisher Scientific). Each of the resulting receptor expression constructs was transiently transfected into COS-7 cells (obtained from and authenticated by Riken BRC Cell Bank), together with the cAMP-responsive luciferase reporter vector pGL4.29 (Promega) and the internal control vector pGL4.74 (Promega) at a ratio of 11:18:1 for 6 h by using Lipofectamine LTX and Plus reagent (Thermo Fisher Scientific). Forty-two hours after transfection, cells were stimulated with Pacap or Vip at doses of 0, 10^−11, 10^−10, 10^−9, 10^−8, 10^−7, 10^−6 and 10^−5 M for 6 h. After cell lysis, luciferase activity was measured by using the Dual-Luciferase Reporter Assay System (Promega). Each assay was performed in triplicate and repeated three times independently.

[6] = test system: medaka Vipr1a; experiment: as above
Text: as §3, §4

[7] = test system: medaka Vipr2b; experiment: as above
Text: as §3, §4

[8] = COS-7 cells, 6 h stimulation, 10^-11 to 10^-5 M, luciferase, triplicate, repeated three times, read-out: half-maximal effective concentration (EC50)

Pituitary adenylate cyclase-activating polypeptide [Pacap]
gh expression (in words) ([1]; female pituitaries): no significant effects
gh expression (Fig. 8, gh) ([1]; female, replicate 1): 0.960
gh expression (Fig. 8, gh) ([1]; female, replicate 2): 0.795
gh expression (Fig. 8, gh) ([1]; female, replicate 3): 0.779
gh expression (Fig. 8, gh) ([1]; female, replicate 4): 0.968
gh expression (Fig. 8, gh) ([1]; female, replicate 5): 0.957
gh expression (Fig. 8, gh) ([1]; female, replicate 6): 1.344
gh expression (in words) ([1]; male pituitaries): no significant effects
gh expression (Fig. 8, gh) ([1]; male, replicate 1): 0.248
gh expression (Fig. 8, gh) ([1]; male, replicate 2): 0.325
gh expression (Fig. 8, gh) ([1]; male, replicate 3): 0.488
gh expression (Fig. 8, gh) ([1]; male, replicate 4): 0.330
gh expression (Fig. 8, gh) ([1]; male, replicate 5): 0.376
gh expression (Fig. 8, gh) ([1]; male, replicate 6): 0.724
prl expression (in words) ([2]; female pituitaries): substantially increased
prl expression (Fig. 8, prl) ([2]; female, replicate 1): 3.510
prl expression (Fig. 8, prl) ([2]; female, replicate 2): 4.473
prl expression (Fig. 8, prl) ([2]; female, replicate 3): 4.149
prl expression (Fig. 8, prl) ([2]; female, replicate 4): 4.897
prl expression (Fig. 8, prl) ([2]; female, replicate 5): 3.291
prl expression (Fig. 8, prl) ([2]; female, replicate 6): 4.279
prl expression (in words) ([2]; male pituitaries): substantially increased
prl expression (Fig. 8, prl) ([2]; male, replicate 1): 1.555
prl expression (Fig. 8, prl) ([2]; male, replicate 2): 3.928
prl expression (Fig. 8, prl) ([2]; male, replicate 3): 2.640
prl expression (Fig. 8, prl) ([2]; male, replicate 4): 1.612
prl expression (Fig. 8, prl) ([2]; male, replicate 5): 3.371
prl expression (Fig. 8, prl) ([2]; male, replicate 6): 6.401
lhb expression (in words) ([3]; female pituitaries): increased
lhb expression (Fig. 8, lhb) ([3]; female, replicate 1): 2.134
lhb expression (Fig. 8, lhb) ([3]; female, replicate 2): 1.510
lhb expression (Fig. 8, lhb) ([3]; female, replicate 3): 1.040
lhb expression (Fig. 8, lhb) ([3]; female, replicate 4): 2.513
lhb expression (Fig. 8, lhb) ([3]; female, replicate 5): 1.735
lhb expression (Fig. 8, lhb) ([3]; female, replicate 6): 1.319
lhb expression (in words) ([3]; male pituitaries): increased
lhb expression (Fig. 8, lhb) ([3]; male, replicate 1): 3.240
lhb expression (Fig. 8, lhb) ([3]; male, replicate 2): 1.453
lhb expression (Fig. 8, lhb) ([3]; male, replicate 3): 3.021
lhb expression (Fig. 8, lhb) ([3]; male, replicate 4): 2.751
lhb expression (Fig. 8, lhb) ([3]; male, replicate 5): 1.229
lhb expression (Fig. 8, lhb) ([3]; male, replicate 6): 1.907
fshb expression (in words) ([4]; female pituitaries, 10^-5 M, 24 h, 25 °C, vs vehicle): significantly reduced
fshb expression (Fig. 8, fshb) ([4]; female, replicate 1): 0.383
fshb expression (Fig. 8, fshb) ([4]; female, replicate 2): 0.806
fshb expression (Fig. 8, fshb) ([4]; female, replicate 3): 0.807
fshb expression (Fig. 8, fshb) ([4]; female, replicate 4): 0.427
fshb expression (Fig. 8, fshb) ([4]; female, replicate 5): 0.650
fshb expression (Fig. 8, fshb) ([4]; female, replicate 6): 0.545
fshb expression (Fig. 8, fshb) ([4]; male, replicate 1): 0.173
fshb expression (Fig. 8, fshb) ([4]; male, replicate 2): 0.236
fshb expression (Fig. 8, fshb) ([4]; male, replicate 3): 0.293
fshb expression (Fig. 8, fshb) ([4]; male, replicate 4): 0.230
fshb expression (Fig. 8, fshb) ([4]; male, replicate 5): 0.290
fshb expression (Fig. 8, fshb) ([4]; male, replicate 6): 0.452
receptor activation, increase in intracellular cAMP levels (in words) ([5]; COS-7 cells, 6 h): dose-dependently activated all six receptors
EC50 [5, 8]: 0.245 nM
greater potency of Pacap as compared with Vip ([5]; ratio of EC50): over 100 fold
potency of Pacap and Vip compared (in words) [6]: fairly similar potencies
receptor activation, increase in intracellular cAMP levels (in words) ([6]; COS-7 cells, 6 h): dose-dependently activated all six receptors
EC50 [6, 8]: 0.851 nM
potency of Pacap and Vip compared (in words) [7]: fairly similar potencies
receptor activation, increase in intracellular cAMP levels (in words) ([7]; COS-7 cells, 6 h): dose-dependently activated all six receptors
EC50 [7, 8]: 2780 nM
